This data set can be described thus: Solution-based assay: residual trans-polydatin after irradiation with 1 molar equivalent of isomerization stabilizer. It is filed as physicochemical. The conditions noted are these: for Average of Relative Residual Trans-polydatin (percent): 0.5% by weight trans-polydatin in solution + 1 molar equivalent stabilizer, irradiated at 365 nm, 5 J total energy, HPLC-UV, per stabilizer; for Photo-stabilization of trans-polydatin in solution (in words): 365 nm, 5 J, comment on Table 2.

Method: The stabilization of polydatin was evaluated in a solution-based assay where residual trans-polydatin percentage was determined after exposure to radiation. According to the experimental method, trans-polydatin was dissolved in an appropriate solvent at 0.5% by weight. To this solution was added 1 molar equivalent of an isomerization stabilizer. An aliquot of the resulting solution was diluted with methanol and the amount of trans-polydatin was quantified by HPLC-UV. The solution containing trans-polydatin and the additive was irradiated under controlled conditions at 365 nm using 5 J of total energy. An aliquot of the irradiated solution was diluted in methanol and the amount of trans-polydatin was quantified by HPLC-UV. The residual trans-polydatin was calculated by dividing the quantified amount of trans-polydatin obtained from the irradiated solution by the amount of trans-polydatin obtained from the non-irradiated solution and is expressed as a percentage. The relative residual is indicated for each photoisomerization stabilizer and is calculated as an average relative residual for classes of photoisomerization stabilizers where indicated.

With `O=c1cc(-c2ccc(O)cc2)oc2cc(O)cc(O)c12` [Apigenin], the “Average of Relative Residual Trans-polydatin (percent)” value is 66.7%.

In the case of `Cc1cc(C(C)(C)C)c(O)c(C(C)(C)C)c1` [BHT, tert-butylhydroxytoluene], the “Average of Relative Residual Trans-polydatin (percent)” value is −3.1% and the “Photo-stabilization of trans-polydatin in solution (in words)” value (from here on “Photo-stabilization of trans-polydatin”) was “ineffective”.

Regarding `O=c1cc(-c2ccccc2)oc2cc(O)c(O)c(O)c12` [Baicalein], the “Average of Relative Residual Trans-polydatin (percent)” value is 42.9%.

On to `O=C(O)[C@H]1O[C@@H](Oc2cc3oc(-c4ccccc4)cc(=O)c3c(O)c2O)[C@H](O)[C@@H](O)[C@@H]1O` [Baicalin], for which the “Average of Relative Residual Trans-polydatin (percent)” value turned out to be 32.3%.

As for `O=C(O[C@@H]1Cc2c(O)cc(O)cc2O[C@@H]1c1cc(O)c(O)c(O)c1)c1cc(O)c(O)c(O)c1` [Epigallocatechine gallate], the “Average of Relative Residual Trans-polydatin (percent)” value worked out at 0.4%.

For the compound `COc1cc(/C=C/C(=O)O)ccc1O` [Ferulic acid], the “Average of Relative Residual Trans-polydatin (percent)” value amounted to 35.5%.

On to `O=C(O)c1cc(O)c(O)c(O)c1` [Gallic acid], for which the “Average of Relative Residual Trans-polydatin (percent)” value is given as −0.3% and the “Photo-stabilization of trans-polydatin” value is on record as “ineffective”.

Consider `COc1ccc([C@@H]2CC(=O)c3c(O)cc(O)cc3O2)cc1O` [Hesperetin], for which the “Average of Relative Residual Trans-polydatin (percent)” value is 30.6%.

With `COc1ccc([C@@H]2CC(=O)c3c(O)cc(O[C@@H]4O[C@H](CO[C@@H]5O[C@@H](C)[C@H](O)[C@@H](O)[C@H]5O)[C@@H](O)[C@H](O)[C@H]4O)cc3O2)cc1O` [Hesperidine], the “Average of Relative Residual Trans-polydatin (percent)” value was determined as 41.6%.

For the compound `O=c1cc(-c2ccc(O)c(O)c2)oc2cc(O)cc(O)c12` [Luteolin], the “Average of Relative Residual Trans-polydatin (percent)” value is given as 63.3%.

`O=C(O)C(O)c1ccccc1` (stereo not drawn) [Mandelic acid]: the “Average of Relative Residual Trans-polydatin (percent)” value is −0.9% and the “Photo-stabilization of trans-polydatin” value is “ineffective”.

With `NC(=O)c1cccnc1` [Niacinamide], the “Average of Relative Residual Trans-polydatin (percent)” value was −0.3% and the “Photo-stabilization of trans-polydatin” value is “ineffective”.

As to `O=c1c(O)c(-c2ccc(O)c(O)c2)oc2cc(O)cc(O)c12` [Quercetin], the “Average of Relative Residual Trans-polydatin (percent)” value is 24.8%.

On to `O=C1c2c(O)cc(O)cc2O[C@H](c2ccc(O)c(O)c2)[C@H]1O` [Taxifolin], for which the “Average of Relative Residual Trans-polydatin (percent)” value amounted to 38.3%.

As for `O=C1O[C@H]([C@@H](O)CO)C(O)=C1O[C@H]1O[C@H](CO)[C@@H](O)[C@H](O)[C@H]1O` [Vitamin CG], the “Average of Relative Residual Trans-polydatin (percent)” value was determined as 6.9% and the “Photo-stabilization of trans-polydatin” value is “ineffective”.

As for `O=C(O)/C=C/c1ccc(O)cc1` [p-coumaric acid], the “Average of Relative Residual Trans-polydatin (percent)” value is 38.6%.

For the compound Glycosyl Hesperidin, the “Average of Relative Residual Trans-polydatin (percent)” value is recorded as 31.0%.

Turning to Vitamin E, the “Average of Relative Residual Trans-polydatin (percent)” value was 0.6% and the “Photo-stabilization of trans-polydatin” value is reported as “ineffective”.

The values above are taken from US12168067B2, “Photostable antioxidant cosmetic composition” (priority 2019, dated 2024).
